Assay results from patent US20250161286A1 (AEVIS BIO, INC., priority 2022, published 2025).

Legend:
[1] = test system: tyrosine hydroxylase (TH); experiment: Immunohistochemical test of tyrosine hydroxylase in brain of MPTP mice; assay type: in vivo, mouse; conditions: oral, versus MPTP group
Description: (§1) To cause the disease, mice in the G2, G3, G4, and G5 groups were administered MPTP dissolved in saline via an intraperitoneal route at 2-hour intervals four times a day (20 mg/kg/time), while the G1 group received the same amount of saline.
After the end of the test on day 7, the brain tissue of the sacrificed mice was collected, sectioned, and analyzed.
Six mice per group were fixed by perfusion with saline followed by perfusion with 4% paraformaldehyde (Biosesang, cat #PC2031-000-00). Each brain tissue was rapidly frozen after isolation and stored at −80° C. until tissue sectioning. Sections for immunohistochemical testing were embedded in an OCT compound (SAKURA, cat #4583), samples were sectioned into 20 μm-thick sections using a cryomicrotome, Leica CM1950 (Leica Microsystems, Germany), and each section was stored at 4° C. until an antibody reaction. […] Images stained with the tyrosine hydroxylase antibody were observed under a microscope (Olympus, SZ61, BX51), and the OD values, which are immunostaining-positive, observed in the striatum and substantia nigra tissue were measured and analyzed by the Image J program.

iNOS and COX-2 = iNOS and COX-2 expression in LPS-stimulated RAW264.7 cells (immunoblotting); assay type: cell-based, mouse; conditions: RAW264.7 cells, 3.33, 10 or 30 μM, 60 ng/ml LPS, 24 hours
Description: To confirm an oxidative stress suppression effect, the expression levels of iNOS and COX-2 were confirmed.
To this end, the RAW264.7 cell line, which is a mouse macrophage cell line, was purchased from the Korea Cell Line Bank (KCLB, Korea) and used, and cultured in a DMEM medium (Corning, MD, USA) supplemented with 10% fetal bovine serum (Corning, MD, USA), 100 U/ml of penicillin (Corning, MD, USA), and 100 μg/ml of streptomycin (Corning, MD, USA) at 37° C. in a 5% CO2 incubator.
After 1 hour, the cells were stimulated by treatment with 60 ng/ml of LPS, and further cultured for 24 hours. The cells were disrupted by adding a RIPA buffer containing a protease inhibitor cocktail (Thermo Fisher Scientific) and centrifuged at 14,000 rpm for 15 minutes at 4° C. to obtain a cell extract. Equal amounts of the cell extract were loaded, and proteins were separated through SDS-PAGE and then transferred to a PVDF film. The protein-transferred membrane was blocked using skim milk, incubated with a primary antibody for 3 hours at room temperature, and then incubated with an HRP-conjugated secondary antibody for 1 hour at room temperature. The resulting product was washed with TBS-T three times between steps. […]

[2] = test system: mouse model with Parkinson's disease induced by MPTP administration; experiment: Grip strength test in MPTP-induced Parkinson's disease mouse model; assay type: in vivo; conditions: MPTP mice
Description: as §1
A grip strength test was performed on day 6 of the test. When a mouse put on a grip strength measuring device (SLD-5FGN, Duratool, China) pulled a net of the device, the measuring device automatically measured the animal's grip strength and expressed it in grams. The average value was measured through five tests per individual.

[3] = Stability of 3-MP in human plasma (UPLC-MS); assay type: in vitro ADME
Description: To plot a standard calibration curve, the stock sample was diluted by half with acetonitrile from 125 to 0.39 μg/mL to prepare standard solutions for a total of 10 samples at different concentrations, and the calibration curve was plotted as shown in FIG. 6A.
For the experiment of verifying stability in plasma, 10 μL of the test drug prepared at a concentration of 100 μg/mL was added to 90 μL of human plasma and mixed for 30 seconds, and then immediately after the addition, the plasma-mixed test drug was incubated for 15, 30, 60, or 120 minutes to prepare samples. Afterward, 400 μL of 100% ethyl acetate was added to each sample and extracted using a vortex mixture for 1 minute. […] Initially, the mobile phase B was increased from 5% to 95% until 9 minutes and analyzed, the mobile phase B was maintained 95% until 12 minutes, and then the mobile phase B was lowered to 5% and equilibrated, and used in the subsequent analysis. the flow rate of the mobile phase was 0.3 mL/min, the sample injection volume was 2 μL, and the mass spectrometer was operated in the ESI-positive mode. The spray voltage was set to 3.5 kV, and the flow rates of the nitrogen sheath gas, auxiliary gas, and sweep gas were analyzed as 50, 10, and 1 (arbitrary units), respectively. […]

SMILES: Nc1cccc2c1C(=S)N(C1CCC(=O)NC1=O)C2=O (stereo not shown) [3-MP, 3-thiopomalidomide]
- expression of tyrosine hydroxylase in the substantia nigra ([1]; 30 and 90 mg/kg): increased in a statistically significant manner
- expression of tyrosine hydroxylase (TH) in the striatum ([1]; all doses, particularly 30 mg/kg): significantly increased
- expression of iNOS and COX-2 (protein) (iNOS and COX-2): inhibit the expression of iNOS and COX-2
- grip strength ([2]; oral, 90 mg/kg): recovered to a level similar to that of the vehicle administration group
- grip strength ([2]; oral, 10, 30, 90 mg/kg/day, versus MPTP group): increased in a concentration-dependent manner
- stability in plasma over time ([3]; 0 to 120 minutes): maintained without significant changes
- plasma level ([3]; immediately after plasma addition (0 minutes)): 80 µg/mL
